Reference: patent publication US20110144159A1, “ETHER BENZYLIDENE PIPERIDINE ARYL CARBOXAMIDE COMPOUNDS USEFUL AS FAAH INHIBITORS” (Pfizer Inc, priority 2008, published 2011)

Target: T1, Human FAAH (Homo sapiens, UniProt O00519)
T1 construct: made in house
T1 sequence (O00519 32-579 limits assumed): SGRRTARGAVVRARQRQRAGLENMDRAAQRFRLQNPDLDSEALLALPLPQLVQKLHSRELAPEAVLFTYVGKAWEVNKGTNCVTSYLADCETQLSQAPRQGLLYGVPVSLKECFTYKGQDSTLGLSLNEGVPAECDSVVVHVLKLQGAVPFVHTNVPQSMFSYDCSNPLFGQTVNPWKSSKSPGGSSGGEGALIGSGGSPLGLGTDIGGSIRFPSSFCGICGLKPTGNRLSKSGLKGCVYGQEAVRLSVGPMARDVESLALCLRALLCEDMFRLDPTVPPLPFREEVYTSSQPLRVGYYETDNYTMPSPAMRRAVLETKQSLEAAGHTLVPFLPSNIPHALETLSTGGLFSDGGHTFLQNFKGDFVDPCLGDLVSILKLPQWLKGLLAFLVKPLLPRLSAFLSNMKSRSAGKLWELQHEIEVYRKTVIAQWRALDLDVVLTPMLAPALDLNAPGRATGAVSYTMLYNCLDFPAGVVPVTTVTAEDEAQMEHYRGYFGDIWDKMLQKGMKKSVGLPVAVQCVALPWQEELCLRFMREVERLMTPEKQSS
Assay: FAAH assay (glutamate dehydrogenase-coupled, oleamide substrate, absorbance at 340 nm)
Type: biochemical
Conditions: for hFAAH KInact/K: irreversible inhibition potency; for kinact/KI: further compounds, read-out: hFAAH_Kinact/Ki—StL
Summary of the method: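 Human FAAH (1-4 nM) with 50 μM oleamide, coupled to glutamate dehydrogenase/NADH, pH 7.4, 7.5% DMSO and EtOH, 30° C; A340 read every 30 s for 90 min. Irreversible inhibition fitted for kobs per concentration, then Ki and kinact from kobs vs. [I].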

hFAAH KInact/K	kinact/KI	Molecule
6410 M⁻¹ s⁻¹		Cc1ncsc1CCOc1cccc(C=C2CCN(C(=O)Nc3cccnn3)CC2)c1 [Example 105, 4-{3-[2-(4-methyl-1,3-thiazol-5-yl)ethoxy]benzylidene}-N-pyridazin-3-ylpiperidine-1-carboxamide]
16400 M⁻¹ s⁻¹		O=C(Nc1cccnn1)N1CCC(=Cc2cccc(OC3CCC(F)(F)CC3)c2)CC1 [Example 106, 4-{3-[(4,4-difluorocyclohexyl)oxy]benzylidene}-N-pyridazin-3-ylpiperidine-1-carboxamide]
	404 M⁻¹ s⁻¹	COc1cnc(NC(=O)N2CCC(=Cc3cccc(OCC4CCCCO4)c3)CC2)cn1 (centres unmarked) [N-(5-methoxypyrazin-2-yl)-4-[3-(tetrahydro-2H-pyran-2-ylmethoxy)benzylidene]piperidine-1-carboxamide]
	950 M⁻¹ s⁻¹	COc1ccc(NC(=O)N2CCC(=Cc3cccc(OCC4CCCCO4)c3)CC2)cn1 (centres unmarked) [N-(6-methoxypyridin-3-yl)-4-[3-(tetrahydro-2H-pyran-2-ylmethoxy)benzylidene]piperidine-1-carboxamide]
	536 M⁻¹ s⁻¹	Cc1ccc(NC(=O)N2CCC(=Cc3cccc(OCC4CCCCO4)c3)CC2)cn1 (centres unmarked) [N-(6-methylpyridin-3-yl)-4-[3-(tetrahydro-2H-pyran-2-ylmethoxy)benzylidene]piperidine-1-carboxamide]
	3130 M⁻¹ s⁻¹	O=C(Nc1cccnc1)N1CCC(=Cc2cccc(OCC3CCCCO3)c2)CC1 (centres unmarked) [N-pyridin-3-yl-4-[3-(tetrahydro-2H-pyran-2-ylmethoxy)benzylidene]piperidine-1-carboxamide]

The remaining lines, values behind:

Molecule	hFAAH KInact/K	kinact/KI
CC(C)(F)CCOc1cccc(C=C2CCN(C(=O)Nc3cccnn3)CC2)c1 [Example 95, 4-[3-(3-fluoro-3-methylbutoxy)benzylidene]-N-pyridazin-3-ylpiperidine-1-carboxamide]	3869 M⁻¹ s⁻¹	
O=C(Nc1cccnn1)N1CCC(=Cc2cccc(OC3CCC(C(F)(F)F)CC3)c2)CC1 (centres unmarked) [Example 97, N-pyridazin-3-yl-4-(3-{[4-(trifluoromethyl)cyclohexyl]oxy}benzylidene)piperidine-1-carboxamide]	3238 M⁻¹ s⁻¹	
CCC(COC)Oc1cccc(C=C2CCN(C(=O)Nc3cccnn3)CC2)c1 (centres unmarked) [Example 98, 4-{3-[1-(methoxymethyl)propoxy]benzylidene}-N-pyridazin-3-ylpiperidine-1-carboxamide]	276 M⁻¹ s⁻¹	
CC(COc1cccc(C=C2CCN(C(=O)Nc3cccnn3)CC2)c1)CC(F)(F)F (centres unmarked) [Example 99, N-pyridazin-3-yl-4-[3-(4,4,4-trifluoro-2-methylbutoxy)benzylidene]piperidine-1-carboxamide]	10896 M⁻¹ s⁻¹	
O=C(Nc1cccnn1)N1CCC(=Cc2cccc(OCC3Cc4ccccc4O3)c2)CC1 (centres unmarked) [Example 100, 4-[3-(2,3-dihydro-1-benzofuran-2-ylmethoxy)benzylidene]-N-pyridazin-3-ylpiperidine-1-carboxamide]	2505 M⁻¹ s⁻¹	
CC1CCC(COc2cccc(C=C3CCN(C(=O)Nc4cccnn4)CC3)c2)CC1 (centres unmarked) [Example 101, 4-{3-[(4-methylcyclohexyl)methoxy]benzylidene}-N-pyridazin-3-ylpiperidine-1-carboxamide]	3281 M⁻¹ s⁻¹	
CC1CN(CCOc2cccc(C=C3CCN(C(=O)Nc4cccnn4)CC3)c2)CC(C)O1 (centres unmarked) [Example 102, 4-{3-[2-(2,6-dimethylmorpholin-4-yl)ethoxy]benzylidene}-N-pyridazin-3-ylpiperidine-1-carboxamide]	207 M⁻¹ s⁻¹	
O=C(Nc1cccnn1)N1CCC(=Cc2cccc(OCC3CCC(C(F)(F)F)CC3)c2)CC1 (centres unmarked) [Example 103, N-pyridazin-3-yl-4-(3-{[4-(trifluoromethyl)cyclohexyl]methoxy}benzylidene)piperidine-1-carboxamide]	1537 M⁻¹ s⁻¹	
O=C(Nc1cccnn1)N1CCC(=Cc2cccc(OCC3CCCCO3)c2)CC1 (centres unmarked) [Example 104, N-pyridazin-3-yl-4-[3-(tetrahydro-2H-pyran-2-ylmethoxy)benzylidene]piperidine-1-carboxamide]	4050 M⁻¹ s⁻¹	
N-pyridazin-3-yl-4-[3-(2-pyridin-4-ylethoxy)benzylidene]piperidine-1-carboxamide [Example 79]	3834 M⁻¹ s⁻¹	
N-pyridazin-3-yl-4-[3-(pyridin-2-ylmethoxy)benzylidene]piperidine-1-carboxamide [Example 46]	353 M⁻¹ s⁻¹	
